Experimental data from patent US10897898B2, “Herbicidal composition comprising cinmethylin and acetochlor or pretilachlor” (BASF Agro B.V., priority 2015, dated 2021).

Tests used:
Format in all cases: in vivo
Conditions in all cases: 20 DAT
Chenopodium album = experiment: greenhouse pre-emergence herbicidal activity on CHEAL
Method: (§1) The test plants have been seeded, separately for each species, in plastic containers in sandy loamy soil containing 5% of organic matter.
(§2) The containers were irrigated gently to promote germination and growth and subsequently covered with transparent plastic hoods until the plants had rooted.
(§3) The plants have been cultivated due to their individual requirements at 10-25° C. and 20-35° C. The plants were irrigated due to their necessity.
(§4) The racemic mixture (±)-2-exo-(2-Methylbenzyloxy)-1-methyl-4-isopropyl-7-oxabicyclo[2.2.1]heptane was used as herbicide A and formulated as emulsifiable concentrates with an active ingredient concentration of 50 g/l, 100 g/l or 750 g/l respectively.
(§5) Acetochlor (herbicide B.1) was used as an encapsulated (CS) formulation having an active ingredient concentration of 400 g/l+67 g/l dichlormid as safener.
(§6) Pretilachlor (herbicide B.2) was used as emulsifiable concentrate (EC) formulation having an active ingredient concentration of 120 g/l.
(§7) In the following experiments, the herbicidal activity for the individual herbicidal compositions (solo and mixture applications) was assessed 20 days after treatment (DAT).
(§8) The evaluation for the damage on undesired weeds caused by the chemical compositions was carried out using a scale from 0 to 100%, compared to the untreated control plants. Here, 0 means no damage and 100 means complete destruction of the plants.
(§9) E=X+Y−(X·Y/100) where X=effect in percent using herbicide A at an application rate a; • Y=effect in percent using herbicide B at application rate b; • E=expected effect (in %) of herbicide A+herbicide B at application rates a+b.
(§10) The value E corresponds to the effect (plant damage or injury) which is to be expected if the activity of the individual compounds is additive. If the observed effect is higher than the value E calculated according to the Colby equation, a synergistic effect is present. […]

Lolium multiflorum = experiment: greenhouse pre-emergence herbicidal activity on LOLMU
Method: as §1, §2, §3, §4, §5, §6, §7, §8, §9
(§11) The value E corresponds to the effect (plant damage or injury) which is to be expected if the activity of the individual compounds is additive. If the observed effect is higher than the value E calculated according to the Colby equation, a synergistic effect is present.
(§12) Tables 1 and 2 below relate to the herbicidal activity, in greenhouse trials, of the individual actives and the combinations applied at different rates and ratios, in pre-emergence application at 20 days after treatment (DAT).

Alopecurus myosuroides = experiment: greenhouse pre-emergence herbicidal activity on ALOMY
Method: as §1, §2, §3, §4, §5, §6, §7, §8, §9, §11, §12

Avena fatua = experiment: greenhouse pre-emergence herbicidal activity on AVEFA
Method: as §1, §2, §3, §4, §5, §6, §7, §8, §9, §11, §12

Abutilon theophrasti = experiment: greenhouse pre-emergence herbicidal activity on ABUTH
Method: as §1, §2, §3, §4, §5, §6, §7, §8, §9, §11, §12

Polygonum convolvulus = experiment: greenhouse pre-emergence herbicidal activity on POLCO
Method: as §1, §2, §3, §4, §5, §6, §7, §8, §9, §11, §12

Anthemis arvensis = experiment: greenhouse pre-emergence herbicidal activity on ANTAR
Method: as §1, §2, §3, §4, §5, §6, §7, §8, §9, §11, §12

Stellaria media = experiment: greenhouse pre-emergence herbicidal activity on STEME
Method: as §1, §2, §3, §4, §5, §6, §7, §8, §9, §11, §12

Sorghum halepense = experiment: greenhouse pre-emergence herbicidal activity on SORHA
Method: as §1, §2, §3, §4, §5, §6, §7, §8, §9, §11, §12

Setaria viridis = experiment: greenhouse pre-emergence herbicidal activity on SETVI
Method: as §1, §2, §3, §4, §5, §6, §7, §8, §9, §11, §12

Geranium dissectum = experiment: greenhouse pre-emergence herbicidal activity on GERDI
Method: as §1, §2, §3, §4, §5, §6, §7, §8, §9, §11, §12

Echinochloa crus-galli = experiment: greenhouse pre-emergence herbicidal activity on ECHCG
Method: as §1, §2, §3, §4
Acetochlor (herbicide B.1) was used as an encapsulated (CS) formulation having an active ingredient concentration of 400 g/l+67 g/l dichlormid as safener. […]
In the following experiments, the herbicidal activity for the individual herbicidal compositions (solo and mixture applications) was assessed 20 days after treatment (DAT). […]
as §10

CCOCN(C(=O)CCl)c1c(C)cccc1CC [acetochlor, 2-chloro-N-(ethoxymethyl)-N-(2-ethyl-6-methylphenyl)acetamide]
herbicidal activity, solo application acetochlor (Chenopodium album; 63 g ai/ha): 40%
herbicidal activity, solo application acetochlor (Lolium multiflorum; 63 g ai/ha): 70%
herbicidal activity, solo application acetochlor (Lolium multiflorum; 250 g ai/ha): 95%
herbicidal activity, solo application acetochlor (Alopecurus myosuroides; 63 g ai/ha): 50%
herbicidal activity, solo application acetochlor (Avena fatua; 63 g ai/ha): 20%
herbicidal activity, solo application acetochlor (Avena fatua; 125 g ai/ha): 70%
herbicidal activity, solo application acetochlor (Avena fatua; 250 g ai/ha): 70%
herbicidal activity, solo application acetochlor (Avena fatua; 500 g ai/ha): 80%
herbicidal activity, solo application acetochlor (Abutilon theophrasti; 63 g ai/ha): 0%
herbicidal activity, solo application acetochlor (Abutilon theophrasti; 125 g ai/ha): 0%
herbicidal activity, solo application acetochlor (Polygonum convolvulus; 125 g ai/ha): 0%
herbicidal activity, solo application acetochlor (Polygonum convolvulus; 250 g ai/ha): 20%
herbicidal activity, solo application acetochlor (Polygonum convolvulus; 500 g ai/ha): 40%
herbicidal activity, solo application acetochlor (Anthemis arvensis; 63 g ai/ha): 35%
herbicidal activity, solo application acetochlor (Anthemis arvensis; 125 g ai/ha): 70%
herbicidal activity, solo application acetochlor (Anthemis arvensis; 250 g ai/ha): 80%
herbicidal activity, solo application acetochlor (Anthemis arvensis; 500 g ai/ha): 90%
herbicidal activity, solo application acetochlor (Stellaria media; 250 g ai/ha): 98%

CCCOCCN(C(=O)CCl)c1c(CC)cccc1CC [pretilachlor, 2-chloro-N-(2,6-diethylphenyl)-N-(2-propoxyethyl)acetamide]
herbicidal activity, solo application pretilachlor (Chenopodium album; 31.3 g ai/ha): 30%
herbicidal activity, solo application pretilachlor (Sorghum halepense; 63 g ai/ha): 20%
herbicidal activity, solo application pretilachlor (Sorghum halepense; 125 g ai/ha): 30%
herbicidal activity, solo application pretilachlor (Sorghum halepense; 250 g ai/ha): 55%
herbicidal activity, solo application pretilachlor (Lolium multiflorum; 31.3 g ai/ha): 0%
herbicidal activity, solo application pretilachlor (Lolium multiflorum; 63 g ai/ha): 0%
herbicidal activity, solo application pretilachlor (Lolium multiflorum; 125 g ai/ha): 25%
herbicidal activity, solo application pretilachlor (Setaria viridis; 31.3 g ai/ha): 25%
herbicidal activity, solo application pretilachlor (Setaria viridis; 63 g ai/ha): 50%
herbicidal activity, solo application pretilachlor (Setaria viridis; 125 g ai/ha): 60%
herbicidal activity, solo application pretilachlor (Alopecurus myosuroides; 63 g ai/ha): 40%
herbicidal activity, solo application pretilachlor (Alopecurus myosuroides; 125 g ai/ha): 40%
herbicidal activity, solo application pretilachlor (Avena fatua; 63 g ai/ha): 15%
herbicidal activity, solo application pretilachlor (Avena fatua; 125 g ai/ha): 20%
herbicidal activity, solo application pretilachlor (Avena fatua; 250 g ai/ha): 25%
herbicidal activity, solo application pretilachlor (Geranium dissectum; 31.3 g ai/ha): 0%
herbicidal activity, solo application pretilachlor (Geranium dissectum; 63 g ai/ha): 0%
herbicidal activity, solo application pretilachlor (Geranium dissectum; 125 g ai/ha): 20%
herbicidal activity, solo application pretilachlor (Polygonum convolvulus; 63 g ai/ha): 15%
herbicidal activity, solo application pretilachlor (Polygonum convolvulus; 125 g ai/ha): 20%
herbicidal activity, solo application pretilachlor (Anthemis arvensis; 31.3 g ai/ha): 20%
herbicidal activity, solo application pretilachlor (Anthemis arvensis; 63 g ai/ha): 20%
herbicidal activity, solo application pretilachlor (Anthemis arvensis; 125 g ai/ha): 30%
herbicidal activity, solo application pretilachlor (Anthemis arvensis; 250 g ai/ha): 30%
herbicidal activity, solo application pretilachlor (Echinochloa crus-galli; 31.3 g ai/ha): 20%
herbicidal activity, solo application pretilachlor (Stellaria media; 31.3 g ai/ha): 30%
herbicidal activity, solo application pretilachlor (Stellaria media; 63 g ai/ha): 25%
herbicidal activity, solo application pretilachlor (Stellaria media; 125 g ai/ha): 30%

(±)-2-exo-(2-Methylbenzyloxy)-1-methyl-4-isopropyl-7-oxabicyclo[2.2.1]heptane [herbicide A]
herbicidal activity, solo application herbicide A (Chenopodium album; 31.25 g ai/ha): 40%
herbicidal activity, solo application herbicide A (Sorghum halepense; 62.5 g ai/ha): 80%
herbicidal activity, solo application herbicide A (Sorghum halepense; 125 g ai/ha): 95%
herbicidal activity, solo application herbicide A (Sorghum halepense; 250 g ai/ha): 98%
herbicidal activity, solo application herbicide A (Lolium multiflorum; 31.25 g ai/ha): 60%
herbicidal activity, solo application herbicide A (Lolium multiflorum; 62.5 g ai/ha): 75%
herbicidal activity, solo application herbicide A (Lolium multiflorum; 125 g ai/ha): 85%
herbicidal activity, solo application herbicide A (Setaria viridis; 31.25 g ai/ha): 90%
herbicidal activity, solo application herbicide A (Setaria viridis; 62.5 g ai/ha): 98%
herbicidal activity, solo application herbicide A (Setaria viridis; 125 g ai/ha): 98%
herbicidal activity, solo application herbicide A (Alopecurus myosuroides; 31.25 g ai/ha): 98%
herbicidal activity, solo application herbicide A (Alopecurus myosuroides; 62.5 g ai/ha): 98%
herbicidal activity, solo application herbicide A (Alopecurus myosuroides; 125 g ai/ha): 98%
herbicidal activity, solo application herbicide A (Avena fatua; 31.25 g ai/ha): 0%
herbicidal activity, solo application herbicide A (Avena fatua; 62.5 g ai/ha): 0%
herbicidal activity, solo application herbicide A (Avena fatua; 125 g ai/ha): 25%
herbicidal activity, solo application herbicide A (Avena fatua; 250 g ai/ha): 35%
herbicidal activity, solo application herbicide A (Geranium dissectum; 31.25 g ai/ha): 50%
herbicidal activity, solo application herbicide A (Geranium dissectum; 62.5 g ai/ha): 60%
herbicidal activity, solo application herbicide A (Geranium dissectum; 125 g ai/ha): 60%
herbicidal activity, solo application herbicide A (Abutilon theophrasti; 31.25 g ai/ha): 30%
herbicidal activity, solo application herbicide A (Abutilon theophrasti; 62.5 g ai/ha): 60%
herbicidal activity, solo application herbicide A (Polygonum convolvulus; 62.5 g ai/ha): 0%
herbicidal activity, solo application herbicide A (Polygonum convolvulus; 125 g ai/ha): 0%
herbicidal activity, solo application herbicide A (Polygonum convolvulus; 250 g ai/ha): 15%
herbicidal activity, solo application herbicide A (Anthemis arvensis; 31.25 g ai/ha): 0%
herbicidal activity, solo application herbicide A (Anthemis arvensis; 62.5 g ai/ha): 0%
herbicidal activity, solo application herbicide A (Anthemis arvensis; 125 g ai/ha): 0%
herbicidal activity, solo application herbicide A (Anthemis arvensis; 250 g ai/ha): 30%
herbicidal activity, solo application herbicide A (Echinochloa crus-galli; 31.25 g ai/ha): 98%
herbicidal activity, solo application herbicide A (Stellaria media; 31.25 g ai/ha): 30%
herbicidal activity, solo application herbicide A (Stellaria media; 62.5 g ai/ha): 30%
herbicidal activity, solo application herbicide A (Stellaria media; 125 g ai/ha): 40%
